How the values were obtained:
[1] = biological target: insulin receptor A (Homo sapiens, UniProt P06213); test: Insulin receptor affinity; assay type: binding; conditions: relative to affinity of human insulin for insulin receptor A (100%)
[2] = test system: Sprague-Dawley rats; test: PD studies: blood glucose after subcutaneous dosing; assay type: in vivo; conditions: sc
Experimental: The pharmacodynamic effect of the Insulin Fc conjugates of the examples were investigated in normal male Sprague-Dawley rats weighing approx. 350 g at study start.
Animals had free access to food and water during the experiment period. They were dosed subcutaneously in the neck region with a dose of 30 nmol/kg (unless otherwise stated in the figures below). Blood samples for blood glucose and plasma insulin analysis were collected from the tongue veins up to 10 days post dosing. Blood glucose was measured using Biosen S Line (EKF).

[3] = PK studies: intravenous and subcutaneous administration to SD rats, insulin-Fc concentrations by immuno-assay; assay type: in vivo; conditions: for PK rat sc [T½ (h)] Mean Value: subcutaneous
Experimental: Insulin-Fc conjugates were tested in vivo by intravenous and subcutaneous administration to SD rats. Blood samples were collected and the insulin-Fc concentrations were measured by immuno-assay.

[4] = test system: isolated rat adipocytes; test: Insulin-stimulated lipogenesis; assay type: cell-based; conditions: 1% HSA; relative to the activity of human insulin (100%)
Experimental: Insulin-stimulated lipogenesis was measured in isolated rat adipocytes in presence of 1% HSA as described in Moody A J, Stan M A, Stan M, Gliemann J. A Simple Free Fat Cell Bioassay for Insulin. Hormone And Metabolic Research. 1974; 6(1):12-6, see results in Table 6.

[5] = dose 30 nmol/kg, time 0.041667 days
[6] = dose 30 nmol/kg, time 0.125 days
[7] = dose 30 nmol/kg, time 0.291667 days
[8] = dose 30 nmol/kg, time 0.208333 days

Sequence of insulin receptor A (P06213 28-1370 isoform P06213-2 limits assumed): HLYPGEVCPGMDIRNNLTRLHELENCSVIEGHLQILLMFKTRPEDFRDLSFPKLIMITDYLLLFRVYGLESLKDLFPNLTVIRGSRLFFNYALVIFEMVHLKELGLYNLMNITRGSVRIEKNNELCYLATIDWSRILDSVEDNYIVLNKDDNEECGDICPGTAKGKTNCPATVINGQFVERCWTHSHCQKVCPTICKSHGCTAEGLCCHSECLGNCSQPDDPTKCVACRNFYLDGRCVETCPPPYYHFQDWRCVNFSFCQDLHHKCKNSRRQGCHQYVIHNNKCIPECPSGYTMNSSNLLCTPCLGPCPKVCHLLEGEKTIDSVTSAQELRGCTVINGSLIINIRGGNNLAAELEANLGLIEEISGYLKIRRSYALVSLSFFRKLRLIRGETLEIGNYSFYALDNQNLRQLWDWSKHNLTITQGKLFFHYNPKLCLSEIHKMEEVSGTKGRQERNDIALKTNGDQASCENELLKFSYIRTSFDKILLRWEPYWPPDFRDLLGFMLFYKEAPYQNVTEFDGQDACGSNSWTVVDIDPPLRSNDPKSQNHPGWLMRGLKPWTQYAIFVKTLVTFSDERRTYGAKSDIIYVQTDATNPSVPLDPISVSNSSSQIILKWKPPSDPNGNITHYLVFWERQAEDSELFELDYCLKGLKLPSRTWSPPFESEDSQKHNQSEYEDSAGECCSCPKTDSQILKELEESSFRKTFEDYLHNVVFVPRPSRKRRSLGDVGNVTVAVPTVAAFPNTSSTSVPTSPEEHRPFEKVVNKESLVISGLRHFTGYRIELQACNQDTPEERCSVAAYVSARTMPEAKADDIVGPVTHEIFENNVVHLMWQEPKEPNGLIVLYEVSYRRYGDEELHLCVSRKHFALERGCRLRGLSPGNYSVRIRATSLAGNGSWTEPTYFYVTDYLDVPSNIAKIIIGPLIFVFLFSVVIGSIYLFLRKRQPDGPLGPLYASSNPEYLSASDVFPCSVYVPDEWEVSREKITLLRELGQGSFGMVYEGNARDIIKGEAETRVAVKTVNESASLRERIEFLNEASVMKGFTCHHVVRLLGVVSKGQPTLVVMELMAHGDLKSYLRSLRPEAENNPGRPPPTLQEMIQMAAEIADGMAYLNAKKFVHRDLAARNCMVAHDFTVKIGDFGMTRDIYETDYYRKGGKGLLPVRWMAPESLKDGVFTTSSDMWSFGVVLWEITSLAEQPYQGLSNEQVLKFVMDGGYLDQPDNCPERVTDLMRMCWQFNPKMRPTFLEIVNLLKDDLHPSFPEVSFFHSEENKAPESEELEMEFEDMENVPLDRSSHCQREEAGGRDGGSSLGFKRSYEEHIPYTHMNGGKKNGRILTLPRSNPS
Sequence of insulin receptor A (P06213 763-1382 partner limits assumed): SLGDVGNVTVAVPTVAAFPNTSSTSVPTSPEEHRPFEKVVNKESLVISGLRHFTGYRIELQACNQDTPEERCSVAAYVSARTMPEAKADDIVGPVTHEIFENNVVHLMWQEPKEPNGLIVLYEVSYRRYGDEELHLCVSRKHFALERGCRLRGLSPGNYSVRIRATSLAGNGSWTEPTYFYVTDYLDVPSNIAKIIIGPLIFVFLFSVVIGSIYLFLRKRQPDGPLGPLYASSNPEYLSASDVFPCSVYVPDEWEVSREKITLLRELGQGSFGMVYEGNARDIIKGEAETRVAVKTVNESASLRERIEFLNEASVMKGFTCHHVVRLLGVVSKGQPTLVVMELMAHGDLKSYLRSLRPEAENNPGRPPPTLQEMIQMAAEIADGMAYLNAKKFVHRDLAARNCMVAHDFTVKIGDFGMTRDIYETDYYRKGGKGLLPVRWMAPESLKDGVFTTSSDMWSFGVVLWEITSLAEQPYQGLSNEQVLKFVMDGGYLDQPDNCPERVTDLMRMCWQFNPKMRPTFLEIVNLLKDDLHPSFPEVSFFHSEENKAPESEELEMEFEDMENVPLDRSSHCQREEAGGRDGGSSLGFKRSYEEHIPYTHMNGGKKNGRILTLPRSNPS

Row | Substance | Insulin receptor affinity [IC50 relative to HI (%)] Mean Value [1] | Average blood glucose ([2]; dose 30 nmol/kg, time 0 days) | Average blood glucose [2, 5] | Average blood glucose [2, 6] | Average blood glucose [2, 7] | Average blood glucose ([2]; dose 30 nmol/kg, time 1 day) | Average blood glucose ([2]; dose 30 nmol/kg, time 2 days) | Average blood glucose ([2]; dose 30 nmol/kg, time 3 days) | Average blood glucose ([2]; dose 30 nmol/kg, time 4 days) | Average blood glucose ([2]; dose 30 nmol/kg, time 5 days) | Average blood glucose ([2]; dose 30 nmol/kg, time 6 days) | Average blood glucose ([2]; dose 30 nmol/kg, time 7 days) | Average blood glucose ([2]; dose 30 nmol/kg, time 8 days) | PK rat iv [T½ (h)] Mean Value [3] | PK rat sc [T½ (h)] Mean Value [3] | Lipogenesis in rat adipocytes [Potency (%)] Mean Value [4] | Average blood glucose [2, 8] | also measured
1 | (A1(N(alpha)acetyl), A14E, A21G, A22(GQAP)19, A98K^, A99P, B1(N(alpha)acetyl), B25H, B29R, desB30 human insulin)/(227A, 234A, 235K, 297E, 315Q, 384Q, des447 hIgG4-Fc(228-447))4-[bis[2-[(2-acetyl)amino]ethyl]amino]-4-oxo-butanoyl Conjugate [Example 5.27] | 1.07% | 5.504 mM | 6.308 mM | 5.72 mM | 5.164 mM | 3.036 mM | 3.852 mM | 4.384 mM | 5.272 mM | 5.236 mM | 5.564 mM | 5.824 mM | 5.924 mM | 40.7 h | 50.4 h |  |  | Average blood glucose ([2]; dose 30 nmol/kg, time 9 days): 5.68 mM; Average blood glucose ([2]; dose 30 nmol/kg, time 10 days): 6.12 mM
2 | A14E, A21G, A22(GQAPGQAPGQEP)6-GQAP, A98K^, A99P, B3Q, B25H, B29R, desB30 human insulin/(227A, 234A, 235K, 297E, 315Q, 3840, des447 hIgG4-Fc(228-447))4-[bis[2-[(2-acetyl)amino]ethyl]amino]-4-oxo-butanoyl Conjugate [Example 5.13] | 5.55% | 6.384 mM | 5.976 mM | 4.892 mM | 4.184 mM | 2.428 mM | 2.452 mM | 3.308 mM | 5.676 mM |  | 5.908 mM | 5.812 mM | 5.492 mM |  |  | 3.07% |  | 
3 | A14E, A21G, A22(GQAPGQEP)6, A70K^, A71P, B25H, B29R, desB30 human insulin/(227A, 234A, 235K hIgG4-Fc(228-447))4-[bis[2-[(2-acetyl)amino]ethyl]amino]-4-oxo-butanoyl Conjugate [Example 5.9] | 2.96% | 5.812 mM | 5.448 mM | 5.438 mM | 4.426 mM | 3.044 mM | 2.614 mM | 2.594 mM | 3.734 mM | 5.932 mM | 6.244 mM | 6.312 mM | 6.186 mM |  |  | 3.02% | 4.902 mM | 
4 | A14E, A21G, A22(GQEP)6, A46K^, A47P, B25H, B29R, desB30 human insulin/(227A, 234A, 235K hIgG4-Fc(228-447))4-[bis[2-[(2-acetyl)amino]ethyl]amino]-4-oxo-butanoyl Conjugate [Example 5.7] | 2.43% | 5.918 mM | 5.682 mM | 4.502 mM | 3.428 mM | 2.758 mM | 2.15 mM | 2.3 mM | 2.81 mM | 4.404 mM | 6.702 mM | 6.518 mM | 6.33 mM |  |  | 1.88% | 3.974 mM | 
5 | A14E, A21G, A22(GQEP)12, A70K^, A71P, B25H, B29R, desB30 human insulin/(227A, 234A, 235K hIgG4-Fc(228-447))4-[bis[2-[(2-acetyl)amino]ethyl]amino]-4-oxo-butanoyl Conjugate [Example 5.8] | 10.58% | 5.538 mM | 5.44 mM | 4.488 mM | 3.238 mM | 2.978 mM | 1.844 mM | 2.545 mM | 3.325 mM | 5.39 mM | 6.8425 mM | 6.4875 mM | 6.1875 mM |  |  | 5.31% | 3.55 mM | 
6 | A14E, A21G, A22(GQEP)19, A98K^, A99P, B3Q, B25H, B29R, desB30 human insulin/(227A, 234A, 235K, 297E, 315Q, 384Q, des447 hIgG4-Fc(228-447))4-[bis[2-[(2-acetyl)amino]ethyl]amino]-4-oxo-butanoyl Conjugate [Example 5.2] | 6.10% | 6.608 mM | 6.196 mM | 5.328 mM | 4.48 mM | 2.7 mM | 2.66 mM | 3.08 mM | 5.156 mM |  | 6.232 mM | 6.092 mM | 5.972 mM |  |  | 3.57% |  | 
7 | A14E, A21Q, A22(G)18, A40K^, B25H, B29R, desB30 human insulin/(227A, 234A, 235K hIgG4-Fc(228-447))4-[bis[2-[(2-acetyl)amino]ethyl]amino]-4-oxo-butanoyl Conjugate [Example 5.21] | 2.10% |  |  |  |  |  |  |  |  |  |  |  |  |  |  | 0.95% |  | Average blood glucose ([2]; dose 300 nmol/kg, time 0 days): 5.254 mM; Average blood glucose ([2]; dose 300 nmol/kg, time 0.006944 days): 5.972 mM; Average blood glucose ([2]; dose 300 nmol/kg, time 0.041667 days): 4.224 mM; Average blood glucose ([2]; dose 300 nmol/kg, time 0.125 days): 3.238 mM; Average blood glucose ([2]; dose 300 nmol/kg, time 0.208333 days): 2.842 mM; Average blood glucose ([2]; dose 300 nmol/kg, time 0.291667 days): 3.212 mM; Average blood glucose ([2]; dose 300 nmol/kg, time 0.3336 days): 3.494 mM; Average blood glucose ([2]; dose 300 nmol/kg, time 1 day): 2.58 mM; Average blood glucose ([2]; dose 300 nmol/kg, time 2 days): 2.118 mM; Average blood glucose ([2]; dose 300 nmol/kg, time 3 days): 2.074 mM; Average blood glucose ([2]; dose 300 nmol/kg, time 4 days): 2.37 mM; Average blood glucose ([2]; dose 300 nmol/kg, time 5 days): 2.478 mM; Average blood glucose ([2]; dose 300 nmol/kg, time 6 days): 4.534 mM; Average blood glucose ([2]; dose 300 nmol/kg, time 7 days): 5.588 mM; Average blood glucose ([2]; dose 300 nmol/kg, time 8 days): 6.552 mM; Average blood glucose ([2]; dose 300 nmol/kg, time 9 days): 5.644 mM; Average blood glucose ([2]; dose 300 nmol/kg, time 10 days): 5.788 mM
8 | A14E, B(−78K^), B(−77P), B(−1)(GQAP)19, B25H, B29R, desB30 human insulin/(227A, 234A, 235K, 297E, 315Q, 384Q, des447 hIgG4-Fc(228-447))4-[bis[2-[(2-acetyl)amino]ethyl]amino]-4-oxo-butanoyl Conjugate [Example 5.18] | 2.78% |  |  |  |  |  |  |  |  |  |  |  |  | 24.9 h | 28.0 h | 0.87% |  | 
9 | A14E, B(−78K^), B(−77P), B(−1)(GQAPGQAPGQEP)6-GQAP, B3Q, B25H, B29R, desB30 human insulin/(227A, 234A, 235K hIgG4-Fc(228-447))4-[bis[2-[(2-acetyl)amino]ethyl]amino]-4-oxo-butanoyl Conjugate [Example 5.3] | 2.57% |  |  |  |  |  |  |  |  |  |  |  |  | 35.6 h | 33.1 h | 0.55% |  | 

From US11471537B2, “Oligomer extended insulin-Fc conjugates” (Novo Nordisk A/S, priority 2017, dated 2022)
